The source of these data is patent US20230077362A1 (CORTEVA AGRISCIENCE LLC, priority 2019, published 2023).

Assay [1] deals with Cabbage Looper (Trichoplusia ni) ("CL"), second instar larvae. Nature of the assay: Bioassay on cabbage looper (CL), 128-well diet tray assay. The assay is classed as in vivo. The note with it: for pest or weed control at 50 µg/cm2: Trichoplusia ni, read-out: CL rating; for CL rating: Table ABC, species CL, C = not tested, D = no activity noticed. In a few lines: (§1)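 Second-instar larvae on diet in 128-well trays, covered and held at 25° C, 14:10 light-dark, for five to seven days. Percent mortality scored per well and averaged over eight wells; activity reported as a rating category.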

Assay [2] concerns Beet Armyworm (Spodoptera exigua) ("BAW"), second instar larvae. In words: Bioassay on beet armyworm (BAW), 128-well diet tray assay. The assay is classed as in vivo. The note with it: for pest or weed control at 50 µg/cm2: Spodoptera exigua, read-out: BAW rating; for BAW rating: Table ABC, species BAW, C = not tested, D = no activity noticed. In a few lines:
as §1

SMILES strings stand for the structures.

As to `CC(C)c1ccc(N(C)C)cc1N1C(=O)CS/C1=N\C(=O)Nc1ccc(-c2ncn(-c3ccc([S+]([O-])C(F)(F)F)cc3)n2)cc1F` (centres unmarked) [Compound J379, (Z)-1-(3-(5-(Dimethylamino)-2-isopropylphenyl)-4-oxothiazolidin-2-ylidene)-3-(2-fluoro-4-(1-(4-((trifluoromethyl)sulfinyl)phenyl)-1H-1,2,4-triazol-3-yl)phenyl)urea], the pest or weed control at 50 µg/cm2 in assay [1] and in assay [2] was 50 to 100% in each case.

For the compound `Cc1ccc(COCC(F)(F)F)c(N2C(=O)CS/C2=N\C(=O)Nc2ccc(-c3ncn(-c4ccc([S+]([O-])C(F)(F)F)cc4)n3)cc2F)c1` (centres unmarked) [Compound J380, (Z)-1-(2-Fluoro-4-(1-(4-((trifluoromethyl)sulfinyl)phenyl)-1H-1,2,4-triazol-3-yl)phenyl)-3-(3-(5-methyl-2-((2,2,2-trifluoroethoxy)methyl)phenyl)-4-oxothiazolidin-2-ylidene)urea], the pest or weed control at 50 µg/cm2 in assay [1] and in assay [2] was 50 to 100% in each case.

In the case of `COC(C)c1ccc(C)cc1N1C(=O)CS/C1=N\C(=O)Nc1ccc(-c2ccn(-c3ccc(C(F)(F)F)nn3)n2)cc1F` (centres unmarked) [Compound J381], the CL rating entry in assay [1] is recorded as “A (50-100)”. Further, the BAW rating result in assay [2] is reported as “A (50-100)”.

`Cc1ccc(OCCC(F)(F)F)c(N2C(=O)CS/C2=N\C(=O)Nc2ccc(-c3ncn(-c4ccc([S+]([O-])C(F)(F)F)cc4)n3)cc2F)c1` (centres unmarked) [Compound J382, (Z)-1-(2-Fluoro-4-(1-(4-((trifluoromethyl)sulfinyl)phenyl)-1H-1,2,4-triazol-3-yl)phenyl)-3-(3-(5-methyl-2-(3,3,3-trifluoropropoxy)phenyl)-4-oxothiazolidin-2-ylidene)urea]: the pest or weed control at 50 µg/cm2 in assay [1] and in assay [2] was 50 to 100% each time.

Consider `CCCc1ccc(N(C)C)cc1N1C(=O)CS/C1=N\C(=O)Nc1ccc(-c2ncn(-c3ccc([S+]([O-])C(F)(F)F)cc3)n2)cc1F` (centres unmarked) [Compound J383, (Z)-1-(3-(5-(Dimethylamino)-2-propylphenyl)-4-oxothiazolidin-2-ylidene)-3-(2-fluoro-4-(1-(4-((trifluoromethyl)sulfinyl)phenyl)-1H-1,2,4-triazol-3-yl)phenyl)urea], for which the pest or weed control at 50 µg/cm2 in assay [1] and in assay [2] was 50 to 100% in each case.

Turning to `CC(C)c1cc(F)c(N(C)C)cc1N1C(=O)CS/C1=N\C(=O)Nc1ccc(-c2ncn(-c3ccc([S+]([O-])C(F)(F)F)cc3)n2)cc1F` (centres unmarked) [Compound J384, (Z)-1-(3-(5-(Dimethylamino)-4-fluoro-2-isopropylphenyl)-4-oxothiazolidin-2-ylidene)-3-(2-fluoro-4-(1-(4-((trifluoromethyl)sulfinyl)phenyl)-1H-1,2,4-triazol-3-yl)phenyl)urea], the pest or weed control at 50 µg/cm2 in assay [1] and in assay [2] was 50 to 100% throughout.

`N#Cc1ccc(OCCC(F)(F)F)c(N2C(=O)CS/C2=N\C(=O)Nc2ccc(-c3ncn(-c4ccc([S+]([O-])C(F)(F)F)cc4)n3)cc2F)c1` (centres unmarked) [Compound J385, (Z)-1-(3-(5-Cyano-2-(3,3,3-trifluoropropoxy)phenyl)-4-oxothiazolidin-2-ylidene)-3-(2-fluoro-4-(1-(4-((trifluoromethyl)sulfinyl)phenyl)-1H-1,2,4-triazol-3-yl)phenyl)urea]: the pest or weed control at 50 µg/cm2 in assay [1] and in assay [2] was 50 to 100% throughout.

For the compound `COC(c1ccc(C)cc1N1C(=O)CS/C1=N\C(=O)Nc1ccc(-c2ncn(-c3ccc([S+]([O-])C(F)(F)F)cc3)n2)cc1F)C(F)(F)F` (centres unmarked) [Compound J386, (Z)-1-(2-Fluoro-4-(1-(4-((trifluoromethyl)sulfinyl)phenyl)-1H-1,2,4-triazol-3-yl)phenyl)-3-(3-(5-methyl-2-(2,2,2-trifluoro-1-methoxyethyl)phenyl)-4-oxothiazolidin-2-ylidene)urea], the pest or weed control at 50 µg/cm2 in assay [1] and in assay [2] was 50 to 100% throughout.

With `Cc1ccc(OCCC(F)(F)F)c(N2C(=O)CS/C2=N\C(=O)Nc2ccc(-c3ncn(-c4ccc(SC(F)(F)F)cc4)n3)cc2)c1` [Compound J387, (Z)-1-(3-(5-Methyl-2-(3,3,3-trifluoropropoxy)phenyl)-4-oxothiazolidin-2-ylidene)-3-(4-(1-(4-((trifluoromethyl)thio)phenyl)-1H-1,2,4-triazol-3-yl)phenyl)urea], the pest or weed control at 50 µg/cm2 in assay [1] and in assay [2] was 50 to 100% in each case.

In the case of `CCCc1ccc(N(C)C)cc1N1C(=O)CS/C1=N\C(=O)Nc1ccc(-c2ncn(-c3ccc(SC(F)(F)F)cc3)n2)cc1` [Compound J388, (Z)-1-(3-(5-(Dimethylamino)-2-propylphenyl)-4-oxothiazolidin-2-ylidene)-3-(4-(1-(4-((trifluoromethyl)thio)phenyl)-1H-1,2,4-triazol-3-yl)phenyl)urea], the pest or weed control at 50 µg/cm2 in assay [1] and in assay [2] was 50 to 100% throughout.

Take `CC(C)c1cc(F)c(N(C)C)cc1N1C(=O)CS/C1=N\C(=O)Nc1ccc(-c2ncn(-c3ccc(SC(F)(F)F)cc3)n2)cc1` [Compound J389, (Z)-1-(3-(5-(Dimethylamino)-4-fluoro-2-isopropylphenyl)-4-oxothiazolidin-2-ylidene)-3-(4-(1-(4-((trifluoromethyl)thio)phenyl)-1H-1,2,4-triazol-3-yl)phenyl)urea]: the pest or weed control at 50 µg/cm2 in assay [1] and in assay [2] was 50 to 100% throughout.

In the case of `Cc1ccc(COCC(F)(F)F)c(N2C(=O)CS/C2=N\C(=O)Nc2ccc(-c3ccn(-c4ccc(C(F)(F)F)nn4)n3)cc2F)c1` [Compound J390], the CL rating entry in assay [1] is recorded as “A (50-100)”. The BAW rating result in assay [2] is recorded as “A (50-100)”.

As to `CC(C)c1ccc(N(C)C)cc1N1C(=O)CS/C1=N\C(=O)Nc1ccc(-c2ccn(-c3ccc(C(F)(F)F)nn3)n2)cc1F` [Compound J391], the pest or weed control at 50 µg/cm2 in assay [1] and in assay [2] was 50 to 100% throughout.

As for `N#Cc1ccc(OCCC(F)(F)F)c(N2C(=O)CS/C2=N\C(=O)Nc2ccc(-c3ncn(-c4ccc(SC(F)(F)F)cc4)n3)cc2)c1` [Compound J392, (Z)-1-(3-(5-Cyano-2-(3,3,3-trifluoropropoxy)phenyl)-4-oxothiazolidin-2-ylidene)-3-(4-(1-(4-((trifluoromethyl)thio)phenyl)-1H-1,2,4-triazol-3-yl)phenyl)urea], the pest or weed control at 50 µg/cm2 in assay [1] and in assay [2] was 50 to 100% throughout.

For the compound `Cc1ccc(COCC(F)(F)F)c(N2C(=O)CS/C2=N\C(=O)Nc2ccc(-c3ncn(-c4ccc(C(F)(F)F)nn4)n3)cc2F)c1` [Compound J394], the CL rating result in assay [1] is reported as “A (50-100)”. Besides, in assay [2], the BAW rating result is given as “A (50-100)”.

For the compound `CC(=O)c1cc(-c2ncn(-c3ccc(OC(F)(F)F)cc3)n2)ccc1NC(=O)/N=C1\SCC(=O)N1c1cc(C)ccc1C(C)C` [Compound J395, (Z)-1-(2-Acetyl-4-(1-(4-(trifluoromethoxy)phenyl)-1H-1,2,4-triazol-3-yl)phenyl)-3-(3-(2-isopropyl-5-methylphenyl)-4-oxothiazolidin-2-ylidene)urea], the pest or weed control at 50 µg/cm2 in assay [1] and in assay [2] was 50 to 100% throughout.
